Experimental findings from patent US20070224291A1, “Cancer treatment” (priority 2005, published 2007) are described below.

One series has as its system Ehrlich ascites tumor. Kind of series: Antitumor activity, transplantable Ehrlich ascites tumor (intraperitoneal). The note with it: mice, reference medication, optimal therapeutic dose of 25 ml/kg. In kind it is in vivo. As to the method: (§1) The antitumor activity of the medication of the present invention was studied in mice and rats with transplantable tumors of Sarcoma 37, 45, and 180, and Ehrlich ascites tumor.
(§2) In the study of antitimor properties of the medication of the present invention, the medication was used in doses of 20 and 40 ml/kg, and 10 and 30 ml/kg in the tests on mice and rats, respectively. The general toxic action which the medication had on the organism of the tested animals was estimated by their outer appearance and behavior during the experiment, as well as by the Growth Ratio (GR) expressed in percent.
The numerical data obtained was processed statistically by Student-Fisher's method.

In the next series the test system is Sarcoma 45. Kind of series: Antitumor activity, transplantable Sarcoma 45 (subcutaneous). In kind it is in vivo. To be noted: rats, reference medication, identical experimental conditions. As to the method:
as §1
(§3) Necrosis-free pieces of tumoral tissue (a peripheral part of a tumoral node) cut with scissors to form a homogeneous mass served as transplantants for solid models (Sarcomas 37, 45 and 180). A sterile physiological solution in the proportion of 1:3-1:4 was added to the tumor and the resulting suspension was introduced with a syringe subcutaneously to the animals. The transplantation was conducted in sterile box conditions using 12-14 days' tumor as a donor. The transplantation of sarcomas 37 and 180 was performed by means of subcutaneous introduction of 0.2-0.3 ml of the 20% tumoral suspension in a physiological solution to the axillary crease of each mouse. For the transplantation of Sarcoma 45, by 0.4-0.5 ml of suspension of tumoral cells was introduced subcutaneously (to the lateral area) of each rat. On the 4th-5th days after inoculation, when the transplanted tumor is usually pea-size, the animals were divided into test and control groups each having 8 mice and 10 rats. […] A day after the last injection of the medication, the animals were killed with ether, weighed, and the weight of tumors was measured separately. […]

A further series concerns Sarcoma 37. The series is described as follows: Antitumor activity, transplantable Sarcoma 37 (subcutaneous). The format is in vivo. To be noted: mice, reference medication, identical experimental conditions. How it is done: as §1, §3
The subject of a further series is Sarcoma 180. The series is described as follows: Antitumor activity, transplantable Sarcoma 180 (subcutaneous). The format is in vivo. To be noted: mice, reference medication, identical experimental conditions. How it is done:
as §1, §3

The conditions of series [1]: in vivo. As to the method: as §2

For the compound `O=c1[nH]cc(F)c(=O)[nH]1` [5-fluorouracil], in the series on Ehrlich ascites tumor, the “antitumor effect (inhibition of ascit accumulation)” value worked out at 70%. The results for the “inhibition of tumor growth” value in the series on Sarcoma 45 and with Sarcoma 180 were 32% and 45%, respectively. In addition, the “therapeutic effect (inhibition of tumor growth)” value in the series on Sarcoma 37 is 70%. The “GR, span over all tests” value in series [1] is given as −7.3 to −11.
